Earlier results on three compounds are cited in US11017689B2, “Very low nicotine cigarette blended with very low THC cannabis” (priority 2018, dated 2021).

In series [1] the test system is nicotine self-administration. The following applies: rats.
Series [2] has as its system nicotinic acetylcholine receptors (nAChRs).
For series [3] the following is noted: administered orally to rats.
For series [4] the following is noted: nicotine in tobacco smoke, inhaled.

As for `c1cncc([C@@H]2CCCCN2)c1` [anabasine], the “dose-effect function on nicotine self-administration” value in series [1] is on record as “biphasic”. In addition, the “reduction of nicotine infusions per session” value in series [1] (2.0 mg/kg of anabasine) was “over 50%”. For the same compound, the “increase in nicotine self-administration” value in series [1] (pretreatment with 0.02 mg/kg anabasine) is 25%. Moreover, the “affinity for nicotinic acetylcholine receptors (nAChRs)” value in series [2] is “affinity”.

For the compound `C1=CCC(c2cccnc2)NC1` (centres unmarked) [anatabine], the “reduction of nicotine self-administration” value in series [1] (pretreatment with 2.0 mg/kg anatabine) was “nearly half”. For the same compound, in series [3], the “elimination half-life relative to that of nicotine” value was 2 to 2.5 fold. Further, the “affinity for nicotinic acetylcholine receptors (nAChRs)” value in series [2] is “affinity”.

For `CN1CCCC1c1cccnc1` (centres unmarked) [nicotine], in series [4], the “time from inhaling the smoke until nicotine reaches the brain” value was “approximately ten”.
